Measured values reported in article PMC10252614 (International Journal of Molecular Sciences, 2023).

Columns and labels:
[1] = PAMPA prediction of BBB permeability; format: in vitro ADME; conditions: for CNS (+/−): PAMPA class; for Papp: read-out: Pe ± SEM
Method: The assay validation was performed using standard compounds whose CNS status is experimentally known from in vivo conditions.
PAMPA (the parallel artificial membrane-permeability assay) is a high-throughput screening tool applicable for prediction of the passive transport of potential drugs across the blood–brain barrier (BBB). In this study, it was used as a non-cell-based in vitro assay carried out in a coated 96-well membrane filter. The filter membrane of the donor plate was coated with PBL (Polar Brain Lipid, Avanti, USA) in dodecane (4 µL of 20 mg/mL PBL in dodecane) and the acceptor well was filled with 300 µL of PBS (pH 7.4; VA). The tested compounds were dissolved first in DMSO and subsequently diluted with PBS (pH 7.4) to final concentrations of 50–100 μM in the donor wells. […] About 300 µL of the donor solution was added to the donor wells (VD) and the donor filter plate was carefully put on the acceptor plate so that the coated membrane was “in touch” with both the donor solution and acceptor buffer. In principle, the test compound diffused from the donor well through the lipid membrane (Area = 0.28 cm^2) to the acceptor well. The concentration of the drug in both the donor and acceptor wells were assessed after 3, 4, 5, and 6 h of incubation in quadruplicate using the UV plate reader Spark (Tecan Group Ltd., Männedorf, Switzerland) at the maximum absorption wavelength of each compound. In addition, the solution of the theoretical compound concentration, simulating the equilibrium state established if the membrane were ideally permeable, was prepared and assessed as well.

in vitro = conditions: human, undifferentiated SH-SY5Y cells
human AChE (hAChE) = biological target: T1, human AChE (hAChE) (Homo sapiens, UniProt P22303); assay: hAChE inhibition, modified Ellman's method; format: biochemical; conditions: read-out: % of AChE inhibition
T1 construct: made in house
T1 sequence (P22303 32-614): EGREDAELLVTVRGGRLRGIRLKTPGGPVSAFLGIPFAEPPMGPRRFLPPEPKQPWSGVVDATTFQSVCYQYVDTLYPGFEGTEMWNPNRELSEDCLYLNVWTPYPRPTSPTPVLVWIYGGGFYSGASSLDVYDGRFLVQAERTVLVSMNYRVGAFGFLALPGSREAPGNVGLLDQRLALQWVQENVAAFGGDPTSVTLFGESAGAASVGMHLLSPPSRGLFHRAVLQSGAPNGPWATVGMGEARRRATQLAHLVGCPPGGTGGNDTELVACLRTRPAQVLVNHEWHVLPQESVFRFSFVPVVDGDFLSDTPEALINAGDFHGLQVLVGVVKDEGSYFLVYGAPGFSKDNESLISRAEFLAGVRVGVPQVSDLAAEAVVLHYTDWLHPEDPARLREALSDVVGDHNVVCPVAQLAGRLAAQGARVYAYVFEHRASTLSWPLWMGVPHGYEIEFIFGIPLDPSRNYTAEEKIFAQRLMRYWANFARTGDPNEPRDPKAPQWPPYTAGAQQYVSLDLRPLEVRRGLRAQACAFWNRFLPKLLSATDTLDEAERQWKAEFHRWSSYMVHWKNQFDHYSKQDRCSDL
Method: (§1) N-Methylpropargylamine-quinazolines were tested for their inhibitory potency against human AChE (hAChE) and human BChE (hBChE) enzymes using the modified spectrophotometric method of Ellman et al..
(§2) The human recombinant BChE and AChE were prepared at the Department of Toxicology and Military Pharmacy (Faculty of Military Health Sciences, Hradec Kralove, Czech Republic). 5,5′-dithiobis(2-nitrobenzoic acid) (Ellman’s reagent, DTNB), phosphate buffer (PB, pH 7.4), acetylthiocholine (ATC) and butyrylthiocholine (BTC), were purchased from Sigma-Aldrich, Prague, Czech Republic. For measuring purposes, polystyrene Nunc 96-well microplates with a flat-bottom shape (ThermoFisher Scientific, Waltham, MA, USA) were utilized. All the assays were carried out in 0.1 M KH2PO4/K2HPO4 buffer, pH 7.4. Enzyme solutions were prepared at 2.0 units/mL in 2 mL aliquots. The assay medium consisted of a 0.1 M phosphate buffer (pH 7.4), 0.01 M DTNB, the enzyme, and 0.01 M substrate (ATC/BTC iodide solution). Concentration 1 µM was tested and the % of inhibition was calculated. Tested compounds were pre-incubated for 5 min. The reaction was started by immediate addition of 20 μL of the substrate. […] Each concentration was assayed in triplicate. Software GraphPad Prism 5 (San Diego, CA, USA) was used for the statistical data evaluation.

SH-SY5Y cells = assay: dehydrogenase activity, WST-1 test; format: cell-based, human; conditions: for change in dehydrogenase activity (in words): 10 µM; for Dehydrogenase Activity (% of Control): 100 µM, mean ± SD
Method: Next, we tested the effects of the compounds on intracellular dehydrogenase activity and glutathione levels. […] To evaluate the effects of the compounds on cells, we measured total intracellular dehydrogenase activity as a marker of cellular viability and glutathione levels for evaluation of oxidative stress (Table 6).
Dehydrogenase activity was evaluated by WST-1 test (Roche, Munich, Germany). The WST-1 test measures the activity of intra- and extra-mitochondrial dehydrogenases. […] The change of absorbance was measured by spectrophotometer at the wavelength of 440 nm using SPARK microplate reader (Tecan, Austria) while incubated at 37 °C. The dehydrogenase activity was expressed as the percentage of total cellular dehydrogenase activity relative to that in the control cells (control = 100%).

GluN1/GluN2B receptor = biological target: T2, GluN1/GluN2B receptor (Homo sapiens, UniProt Q05586+Q13224); assay: whole-cell patch-clamp on HEK293 cells expressing GluN1/GluN2B NMDAR; format: cell-based; conditions: HEK293, 10 µM, −60 mV, ± SEM (n = 5–6), 100% = full inhibition; read-out: Relative inhibition (RI) of GluN1/GluN2B NMDAR
T2 construct: expressed in transfected cells; host or cells: HEK293
T2 sequence (Q13224 27-1484, other chains not shown): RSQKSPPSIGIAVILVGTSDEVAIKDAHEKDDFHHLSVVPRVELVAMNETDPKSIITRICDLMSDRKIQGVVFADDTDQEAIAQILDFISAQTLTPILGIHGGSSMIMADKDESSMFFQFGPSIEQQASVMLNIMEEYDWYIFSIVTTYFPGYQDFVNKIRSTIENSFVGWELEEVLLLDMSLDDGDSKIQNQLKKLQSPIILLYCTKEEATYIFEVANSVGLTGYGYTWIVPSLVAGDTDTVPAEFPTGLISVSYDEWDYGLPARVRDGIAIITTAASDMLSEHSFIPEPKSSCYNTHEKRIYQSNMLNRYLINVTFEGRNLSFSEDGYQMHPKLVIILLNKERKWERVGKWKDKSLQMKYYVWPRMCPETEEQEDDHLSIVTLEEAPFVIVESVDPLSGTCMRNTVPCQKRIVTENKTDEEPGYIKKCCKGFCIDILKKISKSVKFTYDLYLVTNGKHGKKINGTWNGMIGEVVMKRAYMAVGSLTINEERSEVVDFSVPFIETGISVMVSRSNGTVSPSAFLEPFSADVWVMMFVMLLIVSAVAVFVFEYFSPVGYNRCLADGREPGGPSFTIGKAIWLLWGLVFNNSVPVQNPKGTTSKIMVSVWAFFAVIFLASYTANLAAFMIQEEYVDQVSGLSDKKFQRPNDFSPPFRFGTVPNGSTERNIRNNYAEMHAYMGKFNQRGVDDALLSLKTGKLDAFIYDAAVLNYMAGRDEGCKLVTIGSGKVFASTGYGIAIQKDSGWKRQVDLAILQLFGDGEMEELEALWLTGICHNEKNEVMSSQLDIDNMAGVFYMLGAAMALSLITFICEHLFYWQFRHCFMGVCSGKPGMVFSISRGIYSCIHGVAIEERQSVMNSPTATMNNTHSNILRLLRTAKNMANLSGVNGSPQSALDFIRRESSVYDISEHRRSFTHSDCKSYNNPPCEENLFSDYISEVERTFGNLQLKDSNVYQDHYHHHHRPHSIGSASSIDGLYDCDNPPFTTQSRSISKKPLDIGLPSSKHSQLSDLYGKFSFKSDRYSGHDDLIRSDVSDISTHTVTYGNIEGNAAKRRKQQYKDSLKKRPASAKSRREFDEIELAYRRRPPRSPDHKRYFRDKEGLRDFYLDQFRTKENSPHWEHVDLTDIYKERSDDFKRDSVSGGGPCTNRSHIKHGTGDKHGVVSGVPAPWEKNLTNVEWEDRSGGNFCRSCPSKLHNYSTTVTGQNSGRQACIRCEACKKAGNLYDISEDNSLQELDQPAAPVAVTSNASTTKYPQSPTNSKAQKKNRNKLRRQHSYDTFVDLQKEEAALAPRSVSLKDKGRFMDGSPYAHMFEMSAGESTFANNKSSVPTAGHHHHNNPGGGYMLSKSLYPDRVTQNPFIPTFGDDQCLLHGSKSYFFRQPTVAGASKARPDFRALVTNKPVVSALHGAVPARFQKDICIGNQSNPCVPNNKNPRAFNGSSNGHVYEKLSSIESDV
Method: We tested the derivatives by the whole-cell patch-clamp method at a concentration of 10 μM under steady-state conditions in the presence of the saturating concentrations of NMDAR (co-)agonists (L-glutamate and glycine). […] Whole-cell patch-clamp recordings were performed using an Axopatch 200B amplifier (Molecular Devices, LLC., San Jose, CA, USA) at a holding membrane potential of −60 mV. HEK293 cells were co-transfected with DNA vectors encoding human versions of the GluN1-4a (GluN1) and GluN2B subunits and green fluorescent protein (GFP) in a 1:1:1 ratio using 0.9 μL PolyMag reagent (OZ Biosciences SAS, Marseille, France) in 50 μL Opti-MEM I [56, 57]. After 15 min on a magnetic plate, HEK293 cells were trypsinized and resuspended in Opti-MEM I medium containing 1% FBS, 2 mM MgCl2 and 3 mM kynurenic acid (to reduce cell death caused by activation of NMDARs). Electrophysiological measurements were performed 24–48 h after completion of transfection at room temperature. The extracellular recording solution (ECS) contained (in mM): 160 NaCl, 2.5 KCl, 10 HEPES, 10 D-glucose, 0.2 EDTA, and 0.7 CaCl2 (pH 7.3 with NaOH). […] A microprocessor-controlled rapid perfusion system with a time constant for solution exchange around the recorded cell of ~20 ms was used. Currents were low-pass filtered at 2 kHz using an eight-pole Bessel filter, digitized at 5 kHz, and recorded using the pCLAMP 10 program (Molecular Devices, LLC., San Jose, CA, USA). The co-agonist glycine (100 µM) was applied throughout the recording, and the agonist L-glutamate (1 mM) was used to elicit responses of GluN1/GluN2B receptors.

human BChE (hBChE) = biological target: T3, human BChE (hBChE) (Homo sapiens, UniProt P06276); assay: hBChE inhibition, modified Ellman's method; format: biochemical; conditions: 10^-6 M
T3 construct: made in house
T3 sequence (P06276 29-602): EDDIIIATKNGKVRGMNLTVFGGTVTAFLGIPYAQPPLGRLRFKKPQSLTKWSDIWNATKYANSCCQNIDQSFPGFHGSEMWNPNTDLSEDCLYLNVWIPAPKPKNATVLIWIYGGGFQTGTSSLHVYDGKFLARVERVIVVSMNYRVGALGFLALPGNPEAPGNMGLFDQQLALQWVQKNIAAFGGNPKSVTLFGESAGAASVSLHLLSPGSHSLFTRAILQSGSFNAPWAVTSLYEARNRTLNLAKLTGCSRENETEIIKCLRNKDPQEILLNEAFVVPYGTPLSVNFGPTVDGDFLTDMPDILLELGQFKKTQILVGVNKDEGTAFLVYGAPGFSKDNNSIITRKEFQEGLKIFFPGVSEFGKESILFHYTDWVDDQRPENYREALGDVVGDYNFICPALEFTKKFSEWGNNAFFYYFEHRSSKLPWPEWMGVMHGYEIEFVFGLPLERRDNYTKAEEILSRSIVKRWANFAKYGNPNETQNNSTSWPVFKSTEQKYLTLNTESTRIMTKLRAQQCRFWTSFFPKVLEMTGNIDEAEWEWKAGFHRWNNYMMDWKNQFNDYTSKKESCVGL
Method: as §1, §2

Structure (SMILES) | BBB penetration by PAMPA (in words) [1] | CNS (+/−) [1] | Papp ([1]; PAMPA, PBS pH 7.4) [×10⁻⁶ cm/s] | IC50 at 24 h (in vitro) [µM] | inhibition at 1 µM (human AChE (hAChE)) [%] | change in dehydrogenase activity (in words) (SH-SY5Y cells; 24 h) | Dehydrogenase Activity (% of Control) (SH-SY5Y cells; 6 h) | Dehydrogenase Activity (% of Control) (SH-SY5Y cells; 24 h) | inhibition at 10 µM (GluN1/GluN2B receptor) [%] | inhibition at 1 µM (human BChE (hBChE)) [%] | Pe ± SEM ([1]; PAMPA, PBS pH 7.4) [×10⁻⁶ cm/s]
C#CCN(C)c1nc(NC2CCCCC2)c2ccc(Cl)cc2n1 [II-6h, 7-chloro-N4-cyclohexyl-N2-methyl-N2-(prop-2-yn-1-yl)quinazoline-2,4-diamine] | high probability of crossing BBB via passive diffusion | CNS (+) (CNS (+) (high BBB permeation predicted): Pe (×10^−6 cm s^−1) > 4.0) | 9.39 ± 1.17 | 35 ± 1.53 | 3 | no significant changes | 40 ± 3 % of Control | 22 ± 7 % of Control | 63.5 ± 3.46 | 3 | 
C#CCN(C)c1nc(NC2CCCCC2)c2ccccc2n1 [I-6h, N4-cyclohexyl-N2-methyl-N2-(prop-2-yn-1-yl)quinazoline-2,4-diamine] | high probability of crossing BBB via passive diffusion | CNS (+) (CNS (+) (high BBB permeation predicted): Pe (×10^−6 cm s^−1) > 4.0) | 5.61 ± 1.01 | 53.2 ± 3.03 | 4 |  | 62 ± 10 % of Control | 49 ± 2 % of Control | 49.3 ± 1.16 | 0 | 
C#CCN(C)c1nc(N)c2cc(OC)ccc2n1 [III-6a, 6-methoxy-N2-methyl-N2-(prop-2-yn-1-yl)quinazoline-2,4-diamine] | did not penetrate the artificial barrier | CNS (−) (CNS (−) (low BBB permeation predicted): Pe (×10^−6 cm s^−1) < 2.0) |  | 38.6 ± 0.82 | 9 | no significant changes | 107 ± 8 % of Control | 128 ± 4 % of Control | 18.1 ± 5.75 | 1 | 0
C#CCN(C)c1nc(NCCCC)c2ccccc2n1 [I-6e, N4-butyl-N2-methyl-N2-(prop-2-yn-1-yl)quinazoline-2,4-diamine] | high probability of crossing BBB via passive diffusion | CNS (+) (CNS (+) (high BBB permeation predicted): Pe (×10^−6 cm s^−1) > 4.0) | 7.37 ± 1.22 | 67.95 ± 0.22 | 3 |  | 44 ± 13 % of Control | 49 ± 4 % of Control | 30.1 ± 3.13 | 4 | 
